We go through 14 compounds from paper PMC6651501, “Design, Synthesis and Biological Evaluation of Novel Osimertinib-Based HDAC and EGFR Dual Inhibitors” (Molecules, 2019).

For one data set, the system named is HeLa. The data set can be described thus: In vitro anti-proliferative MTT assay. To be noted: Homo sapiens, 72 h, read-out: IC50 HeLa. In general terms: Tetrazolium assays rely on reduction of a dye to a coloured formazan, in cell work by metabolically active cells.
The test system of another data set is PC-3. Briefly: In vitro anti-proliferative MTT assay. In kind it is cell-based. To be noted: Homo sapiens, 72 h.
The test system of the next data set is A549. The data set can be described thus: In vitro anti-proliferative MTT assay. The format is cell-based. To be noted: Homo sapiens, 72 h.
The subject of another data set is MDA-MB-231. The data set can be described thus: In vitro anti-proliferative MTT assay. The settings on record: Homo sapiens, MDA-MB-231, 72 h, read-out: IC50 MDA-MB-231.
The next data set has as its system MDA-MB-468. Briefly: In vitro anti-proliferative MTT assay. The settings on record: Homo sapiens, MDA-MB-468, 72 h, read-out: IC50 MDA-MB-468.
In a further data set the test system is HT-29. The data set can be described thus: In vitro anti-proliferative MTT assay. To be noted: Homo sapiens, HT-29, 72 h, read-out: IC50 HT-29.
In another data set the test system is KG-1. The data set can be described thus: In vitro anti-proliferative MTT assay. To be noted: Homo sapiens, KG-1, 72 h, read-out: IC50 KG-1.
For a further data set, the target named is EGFR (T790M) (Homo sapiens, UniProt P00533, T790M). The data set can be described thus: In vitro EGFR inhibition, Kinase-Glo Plus luminescence kinase assay. In kind it is biochemical. To be noted: for inhibition at 1 µM: 1 μM compound, read-out: EGFR (T790M) Inhibition Rate at 1 μM; for IC50: 10 µM ATP. The method, then:
(§1) The assay was performed using Kinase-Glo Plus luminescence kinase assay kit. All of the enzymatic reactions were conducted at 30 °C for 40 min. The 50 µL reaction mixture in assay buffer contained 10 µM ATP, EGFR kinases, and different concentrations of compounds. Kinase activity was measured by quantitating the amount of ATP remaining in solution following a kinase reaction. The luminescent signal from the assay is correlated with the amount of ATP present and is inversely correlated with the amount of kinase activity. The IC50 values were calculated using nonlinear regression with normalized dose−response fit using Prism GraphPad software (GraphPad Software, San Diego, CA, USA).
(Kinase-Glo reads ATP consumption through a luciferase reaction.)

Data set [1] relates to HDAC (HeLa cell nuclear extract, mainly contains HDAC1 and 2). Briefly: In vitro HDACs inhibition fluorescent assay (HeLa cell nuclear extract). The settings on record: read-out: HDAC IC50; HeLa cell nuclear extract as enzyme source.
Experimental: The HDAC inhibitory activities of all the target compounds were evaluated using HeLa cell nuclear extract (mainly contains HDAC1 and 2) as enzyme source.
In brief, 10 μL of HeLa cell nuclear extract was mixed with different concentrations of tested compound (50 μL). […] The inhibition ratios were calculated from the fluorescence intensity readings of tested wells relative to those of control wells, and the IC50 values were calculated using a regression analysis of the concentration/inhibition data.
The next data set has as its target EGFR (WT) (Homo sapiens, UniProt P00533). The data set can be described thus: In vitro EGFR inhibition, Kinase-Glo Plus luminescence kinase assay. The format is biochemical. The settings on record: 10 µM ATP. Here is the method:
as §1

Another data set concerns the target T1, BRD4 (BD1) (Homo sapiens, UniProt O60885).
T1 construct: using the recombinant BRD4 (BD1) and its corresponding ligand (BET)
Briefly: BRD4 inhibition assay (TR-FRET). In kind it is binding. To be noted: 1 μM compound. The method, then:
The assay was performed by TR-FRET technology using the recombinant BRD4 (BD1) and its corresponding ligand (BET). The TR-FRET signal from the assay is correlated with the amount of ligand binding to the bromodomain. All of the binding reactions were conducted at room temperature. The 20 µL reaction mixture in assay buffer contained bromodomains, BET ligand and the indicated amount of inhibitor. For the negative control (blank), 5 µL of the assay buffer was added instead of the BET ligand. The reaction mixture was incubated for 120 min, then TR-FRET signal was measured using Tecan Infinite M1000 plate reader (Tecan, Männedorf, Switzerland).

A further data set addresses LSD1 (Homo sapiens, UniProt O60341). Briefly: Amplex red coupled LSD1 inhibition assay. The format is biochemical. The settings on record: 10 μM compound. The method, then: Lysine specific demethylase 1 (LSD1, also known as KDM1A) is a kind of epigenetic eraser, which catalyzes the oxidative demethylation of histone 3 methyllysine 4 (H3K4me1) and histone 3 dimethyllysine 4 (H3K4me2). It has been reported that LSD1 is overexpressed in various cancer cells and tissues, and regarded as a potential anticancer target.
Amplex red coupled LSD1 inhibition assay was carried out following reported method. In brief, the compounds were incubated with the recombinant LSD1 and H3K4me2. After that, the fluorescence was measured at excitation wavelength 530 nm and emission wavelength 590 nm in order to evaluate the inhibition rate of the candidate compound.

Data set [2] deals with thirteen cancer-related kinases. Briefly: Kinases inhibition assay (Eurofins Cerep, LANCE detection). The format is biochemical, human. The settings on record: 100 nM compound, Figure 4. Here is the method: Compound 9E was further tested against thirteen cancer-related kinases to characterize its protein kinase selective profile.
The kinase inhibition assays were performed by Eurofins Cerep Corporation in France. In brief, evaluation of the effects of compounds on the activity of the human kinases was quantified by measuring the phosphorylation of the corresponding substrate using human recombinant enzymes and the LANCE detection method.

Chain of EGFR (T790M) (P00533 25-1210 T790M): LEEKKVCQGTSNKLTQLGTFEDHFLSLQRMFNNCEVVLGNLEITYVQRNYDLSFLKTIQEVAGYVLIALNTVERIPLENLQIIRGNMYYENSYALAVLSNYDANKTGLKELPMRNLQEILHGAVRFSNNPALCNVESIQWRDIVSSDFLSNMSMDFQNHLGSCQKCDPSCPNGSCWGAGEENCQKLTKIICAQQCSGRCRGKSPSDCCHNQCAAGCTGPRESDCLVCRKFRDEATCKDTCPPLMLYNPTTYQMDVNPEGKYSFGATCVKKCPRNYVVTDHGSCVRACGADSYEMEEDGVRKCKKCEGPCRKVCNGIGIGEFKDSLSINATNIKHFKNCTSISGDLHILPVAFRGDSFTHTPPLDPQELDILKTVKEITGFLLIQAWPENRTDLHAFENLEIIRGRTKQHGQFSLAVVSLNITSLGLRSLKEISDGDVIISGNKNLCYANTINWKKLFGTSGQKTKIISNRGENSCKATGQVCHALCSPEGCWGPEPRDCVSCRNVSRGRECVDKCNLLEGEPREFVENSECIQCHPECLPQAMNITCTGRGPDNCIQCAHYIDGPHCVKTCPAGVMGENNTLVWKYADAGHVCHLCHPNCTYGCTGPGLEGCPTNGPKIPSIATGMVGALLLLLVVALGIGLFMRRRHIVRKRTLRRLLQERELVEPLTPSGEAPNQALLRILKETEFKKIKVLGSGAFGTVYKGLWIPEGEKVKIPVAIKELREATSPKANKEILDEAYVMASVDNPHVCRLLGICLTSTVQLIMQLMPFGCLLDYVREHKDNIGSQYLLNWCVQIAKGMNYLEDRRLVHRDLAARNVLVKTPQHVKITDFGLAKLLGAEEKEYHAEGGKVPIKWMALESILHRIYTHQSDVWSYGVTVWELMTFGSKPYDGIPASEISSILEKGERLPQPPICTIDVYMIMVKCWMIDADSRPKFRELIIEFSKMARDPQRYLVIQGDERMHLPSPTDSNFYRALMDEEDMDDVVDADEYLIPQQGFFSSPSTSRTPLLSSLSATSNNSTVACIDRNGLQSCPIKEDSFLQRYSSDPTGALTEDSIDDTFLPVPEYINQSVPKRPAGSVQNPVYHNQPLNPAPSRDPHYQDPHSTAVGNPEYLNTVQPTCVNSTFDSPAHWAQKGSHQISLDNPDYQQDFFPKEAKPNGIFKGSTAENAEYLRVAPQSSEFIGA
Chain of EGFR (WT) (P00533 25-1210): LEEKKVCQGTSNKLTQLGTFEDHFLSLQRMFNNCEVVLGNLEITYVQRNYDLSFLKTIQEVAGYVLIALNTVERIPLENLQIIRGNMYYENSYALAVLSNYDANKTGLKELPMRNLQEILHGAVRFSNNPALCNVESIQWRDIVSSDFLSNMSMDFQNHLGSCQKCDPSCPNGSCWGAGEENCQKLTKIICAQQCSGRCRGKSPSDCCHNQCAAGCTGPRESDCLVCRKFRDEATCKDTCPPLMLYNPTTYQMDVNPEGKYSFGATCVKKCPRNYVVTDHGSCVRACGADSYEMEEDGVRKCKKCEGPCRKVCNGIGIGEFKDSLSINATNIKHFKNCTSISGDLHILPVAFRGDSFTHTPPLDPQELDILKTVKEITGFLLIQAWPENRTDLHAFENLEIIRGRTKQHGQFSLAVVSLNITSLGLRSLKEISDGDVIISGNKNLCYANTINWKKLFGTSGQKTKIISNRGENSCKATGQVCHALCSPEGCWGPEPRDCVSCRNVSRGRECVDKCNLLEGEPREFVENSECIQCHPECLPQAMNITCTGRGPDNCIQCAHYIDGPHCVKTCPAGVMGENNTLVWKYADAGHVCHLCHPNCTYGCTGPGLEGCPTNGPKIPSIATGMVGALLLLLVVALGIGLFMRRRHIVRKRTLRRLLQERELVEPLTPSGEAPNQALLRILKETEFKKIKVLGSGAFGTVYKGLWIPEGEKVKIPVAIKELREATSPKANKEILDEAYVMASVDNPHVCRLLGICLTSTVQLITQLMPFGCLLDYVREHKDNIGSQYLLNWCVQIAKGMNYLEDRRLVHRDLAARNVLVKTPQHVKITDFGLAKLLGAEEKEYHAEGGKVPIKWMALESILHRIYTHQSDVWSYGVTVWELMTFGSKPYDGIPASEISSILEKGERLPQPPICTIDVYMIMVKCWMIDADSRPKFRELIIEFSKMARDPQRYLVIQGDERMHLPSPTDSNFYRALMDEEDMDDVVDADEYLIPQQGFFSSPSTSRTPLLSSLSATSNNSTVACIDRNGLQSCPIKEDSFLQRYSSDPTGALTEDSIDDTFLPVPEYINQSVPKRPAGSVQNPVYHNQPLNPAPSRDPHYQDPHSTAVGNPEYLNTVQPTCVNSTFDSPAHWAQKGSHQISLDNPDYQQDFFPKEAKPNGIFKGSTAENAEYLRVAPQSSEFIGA
Experimental for HT-29: (§2) Cell proliferation assay was determined by the MTT (3-[4,5-dimethyl-2-thiazolyl]-2,5-diphenyl-2H-tetrazolium bromide) method. Briefly, cells were passaged the day before dosing into a 96-well plate, allowed to grow for 12 h, and then treated with different concentrations of compound for 72 h. A 0.5% MTT solution was added to each well. After incubation for another 4 h, formazan formed from MTT was extracted by adding 200 μL of DMSO. Absorbance was then determined using a microplate reader at 570 nm.
Experimental for KG-1: as §2
Experimental for MDA-MB-231: as §2
Experimental for MDA-MB-468: as §2

Usually IC50 stands for the concentration needed to halve the response being measured. For `C=CC(=O)Nc1cc(Nc2nccc(-c3cn(C)c4ccccc34)n2)c(OC)cc1N(C)CCN(C)C` [AZD9291, osimertinib], the IC50 in the data set with HeLa amounted to 3270 nM; with PC-3, 1230 nM; in the data set on A549 it was 1970 nM; in the data set on MDA-MB-231, 3540 nM; with MDA-MB-468, 1300 nM; with HT-29, 870 nM. The concentration for half-maximal inhibition (IC50) with KG-1 came to 530 nM.
The term melting point denotes the temperature, or range, at which the solid turns liquid. As usually defined, the inhibition is the change of the read-out against control, counted positive when it falls. On to `Cn1cc(-c2ccnc(Nc3ccc(C(=O)NCCC(=O)NO)cc3)n2)c2ccccc21` [Compound 5A, N-(3-(hydroxyamino)-3-oxopropyl)-4-((4-(1-methyl-1H-indol-3-yl)pyrimidin-2-yl)amino) benzamide], for which the melting point lay within 164 to 167 °C. The inhibition at 1 µM on EGFR (T790M) was found to be 36%.
`Cn1cc(-c2ccnc(Nc3ccc(C(=O)NCCCC(=O)NO)cc3)n2)c2ccccc21` [Compound 5B, N-(4-(hydroxyamino)-4-oxobutyl)-4-((4-(1-methyl-1H-indol-3-yl)pyrimidin-2-yl)amino) benzamide] registered a melting point of 165 to 168 °C. Besides, the inhibition at 1 µM on EGFR (T790M) is 34%.
`Cn1cc(-c2ccnc(Nc3ccc(C(=O)NCCCCC(=O)NO)cc3)n2)c2ccccc21` [Compound 5C, N-(5-(hydroxyamino)-5-oxopentyl)-4-((4-(1-methyl-1H-indol-3-yl)pyrimidin-2-yl)amino) benzamide] had a melting point of 144 to 147 °C. In addition, the inhibition at 1 µM at EGFR (T790M) was determined as 42%. Besides, the IC50 in data set [1] stood at 462 nM.
As for `Cn1cc(-c2ccnc(Nc3ccc(C(=O)NCCCCCC(=O)NO)cc3)n2)c2ccccc21` [Compound 5D, N-(6-(hydroxyamino)-6-oxohexyl)-4-((4-(1-methyl-1H-indol-3-yl)pyrimidin-2-yl)amino) benzamide], the melting point was in the range of 168 to 170 °C. The 50% inhibitory concentration (IC50) in the data set with HeLa was 4060 nM. The inhibition at 1 µM at EGFR (T790M) worked out at 35%. In the data set on A549, this compound had an IC50 of 3560 nM. In addition, the IC50 with MDA-MB-231 came out at 1160 nM. The half-maximal inhibitory concentration (IC50) in the data set with MDA-MB-468 stood at 660 nM. The IC50 in data set [1] amounted to 23 nM. Further, the IC50 in the data set on HT-29 came out at 2940 nM. Besides, the half-inhibitory concentration (IC50) in the data set with KG-1 worked out at 1470 nM.
Compound `Cn1cc(-c2ccnc(Nc3ccc(C(=O)NCCCCCCC(=O)NO)cc3)n2)c2ccccc21` [Compound 5E, N-(7-(hydroxyamino)-7-oxoheptyl)-4-((4-(1-methyl-1H-indol-3-yl)pyrimidin-2-yl)amino) benzamide] returned a melting point of 161 to 163 °C. In addition, in the data set with HeLa, the concentration for half-maximal inhibition (IC50) was found to be 2790 nM. The half-inhibitory concentration (IC50) on EGFR (WT) amounted to 3200 nM. Moreover, at EGFR (T790M), the inhibition at 1 µM was 44% and the concentration for half-maximal inhibition (IC50) was determined as 1200 nM. In addition, 2250 nM corresponded to half-maximal inhibition in the data set with PC-3 (IC50). Besides, the IC50 in the data set on A549 came out at 2400 nM. The IC50 with MDA-MB-231 came to 660 nM. Also, in the data set with MDA-MB-468, the IC50 worked out at 330 nM. The IC50 in data set [1] was determined as 105 nM. For the same compound, the half-maximal inhibitory concentration (IC50) with HT-29 is 1990 nM. Moreover, the IC50 in the data set on KG-1 worked out at 520 nM.
The compound `COc1cc(NC(=O)CCC(=O)NO)ccc1Nc1nccc(-c2cn(C)c3ccccc23)n1` [Compound 9A, N^1-hydroxy-N^4-(3-methoxy-4-((4-(1-methyl-1H-indol-3-yl)pyrimidin-2-yl)amino)phenyl) succinimide] showed a melting point of 151 to 153 °C. For the same compound, the inhibition at 1 µM on EGFR (T790M) came out at 38%.
In the same order, the values of `COc1cc(NC(=O)CCCC(=O)NO)ccc1Nc1nccc(-c2cn(C)c3ccccc23)n1` [Compound 9B, N^1-hydroxy-N^5-(3-methoxy-4-((4-(1-methyl-1H-indol-3-yl)pyrimidin-2-yl)amino)phenyl) glutaramide] are 146 to 148 °C and 37%.
The compound `COc1cc(NC(=O)CCCCC(=O)NO)ccc1Nc1nccc(-c2cn(C)c3ccccc23)n1` [Compound 9C, N^1-hydroxy-N^6-(3-methoxy-4-((4-(1-methyl-1H-indol-3-yl)pyrimidin-2-yl)amino)phenyl) adipamide] yielded a melting point of 118 to 120 °C. For the same compound, the inhibition at 1 µM at EGFR (T790M) amounted to 12%. Also, the IC50 in [1] was determined as 397 nM.
`COc1cc(NC(=O)CCCCCC(=O)NO)ccc1Nc1nccc(-c2cn(C)c3ccccc23)n1` [Compound 9D, N^1-hydroxy-N^7-(3-methoxy-4-((4-(1-methyl-1H-indol-3-yl)pyrimidin-2-yl)amino)phenyl) heptanediamide]: the IC50 was 5640 nM in the data set on HeLa; 5450 nM with PC-3; 5110 nM in the data set on A549; 3690 nM in the data set with MDA-MB-231; 1070 nM with MDA-MB-468; 121 nM in [1]. Besides, the values for the IC50 in the data set on HT-29 and in the data set on KG-1 were 4130 nM and 3620 nM, respectively. Besides, on EGFR (T790M), the inhibition at 1 µM turned out to be 13%.
For `COc1cc(NC(=O)CCCCCCC(=O)NO)ccc1Nc1nccc(-c2cn(C)c3ccccc23)n1` [Compound 9E, N^1-hydroxy-N^8-(3-methoxy-4-((4-(1-methyl-1H-indol-3-yl)pyrimidin-2-yl)amino)phenyl) octanediamide], the “BRD4 Inhibition Rate at 1 μM” value on BRD4 (BD1) is given as “not active”. Also, the figures for the inhibition at 1 µM at BRD4 (BD1) (read-out: BRD4 Inhibition Rate at 1 μM) and at EGFR (T790M) were 0% and 15%, respectively. Further, the “LSD1 Inhibition Rate at 10 μM” value on LSD1 is reported as “no significant inhibition”. In addition, at LSD1 (read-out: LSD1 Inhibition Rate at 10 μM), the inhibition at 10 µM turned out to be 13%. Further, the concentration for half-maximal inhibition (IC50) in the data set on HeLa was 1850 nM; on EGFR (WT) it was 5700 nM; on EGFR (T790M) it was 5000 nM; in the data set with PC-3, 3390 nM; in the data set with A549, 2190 nM; in the data set with MDA-MB-231, 600 nM. Moreover, the IC50 in the data set with MDA-MB-468 was found to be 230 nM; in data set [1], 85 nM; with HT-29 it was 790 nM; in the data set with KG-1, 240 nM. In data set [2], the “Inhibition of 13 protein kinases at 100 nM” value was “no significant inhibition”.
Turning to `Cn1cc(-c2ccnc(Nc3ccc(C(=O)NO)cc3)n2)c2ccccc21` [Compound 10A, N-hydroxy-4-((4-(1-methyl-1H-indol-3-yl)pyrimidin-2-yl)amino) benzamide], the melting point was 108 to 111 °C. For the same compound, the inhibition at 1 µM on EGFR (T790M) was determined as 41%.
For `Cn1cc(-c2ccnc(Nc3ccc(C(=O)Nc4ccccc4N)cc3)n2)c2ccccc21` [Compound 10B, N-(2-aminophenyl)-4-((4-(1-methyl-1H-indol-3-yl)pyrimidin-2-yl)amino) benzamide], in that order: 164 to 168 °C and 40%.
In the data set with A549, `O=C(CCCCCCC(=O)Nc1ccccc1)NO` [SAHA, suberoylanilide hydroxamic acid, reference compound] registered a half-maximal inhibitory concentration (IC50) of 2130 nM.
